Experimental data published in patent US20060069132A1, “Azolecarboxamide herbicides” (priority 2004, published 2006).

Tests used:
Assay in all cases: Test C postemergence herbicide test
chickweed = type: in vivo, Stellaria media; conditions: for Chickweed plant response rating: 500 g ai/ha
Procedure: At the same time, plants selected from these crop and weed species and also winter barley (Hordeum vulgare L.), blackgrass (Alopecurus myosuroides Huds.), canarygrass (Phalaris minor Retz.), chickweed (Stellaria media (L.) Vill.), downy bromegrass (Bromus tectorum L.), green foxtail (Setaria viridis (L.) Beauv.), Italian ryegrass (Lolium multiflorum Lam.), wheat (Triticum aestivum L.), wild oat (Avenafatua L.) and windgrass (Apera spica-venti (L.) Beauv.) were treated with postemergence applications of some of the test chemicals formulated in the same manner. Plants ranged in height from 2 to 18 cm (1- to 4-leaf stage) for postemergence treatments. Plant species in the flooded paddy test consisted of rice (Oryza sativa), smallflower umbrella sedge (Cyperus difformis L.), ducksalad (Heteranthera limosa (Sw.) Willd.) and barnyardgrass (Echinochloa crus-galli (L.) Beauv.) grown to the 2-leaf stage for testing. Treated plants and controls were maintained in a greenhouse for 12 to 14 days, after which time all species were compared to controls and visually evaluated. Plant response ratings, summarized in Table C, are based on a scale of 0 to 100 where 0 is no effect and 100 is complete control. A dash (-) response means no test result.

wild oat = type: in vivo, Avenafatua
In short: (§1)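 Plants were grown to the 1- to 4-leaf stage (2–18 cm) and then treated postemergence, or grown to the 2-leaf stage for the flooded paddy test. They were held in a greenhouse for 12 to 14 days and then scored by eye against controls, where 0 is no effect and 100 is complete control.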

Italian ryegrass = type: in vivo, Lolium multiflorum
In short: as §1

[1] = Postemergence, 125 g ai/ha, scale 0 to 100, 0 no effect, 100 complete control
[2] = Postemergence, 250 g ai/ha, scale 0 to 100, 0 no effect, 100 complete control
[3] = postemergence, 125 g ai/ha, scale 0 to 100
[4] = postemergence, 62 g ai/ha, scale 0 to 100
[5] = postemergence, 31 g ai/ha, scale 0 to 100
[6] = Postemergence, 500 g ai/ha, scale 0 to 100, 0 no effect, 100 complete control
[7] = Postemergence, 500 g ai/ha, scale 0 to 100

Structure (SMILES) | Chickweed plant response rating (chickweed; Postemergence, scale 0 to 100) | Plant response rating, Chickweed (chickweed; [2]) | Plant response rating, Chickweed (chickweed; [3]) | Plant response rating, Chickweed (chickweed; [4]) | Plant response rating, Oat, Wild (wild oat; [2]) | Plant response rating, Oat, Wild (wild oat; [3]) | Plant response rating, Oat, Wild (wild oat; [4]) | Plant response rating, Ryegrass, Italian (Italian ryegrass; [2]) | Plant response rating, Ryegrass, Italian (Italian ryegrass; [3]) | Plant response rating, Ryegrass, Italian (Italian ryegrass; [4]) | further results
C=Cn1nc(C(C)(C)C)cc1C(=O)Nc1cccc(C(=O)N(CC)CC)c1 [Compound 34] | 100 | 60 | – | – | – | – | – | – | – | – | Plant response rating, Chickweed (chickweed; [1]): 50
C=CCNC(=O)c1cccc(NC(=O)c2cc(C(C)(C)C)nn2C)n1 [Compound 318] | 80 | 10 | 0 | 0 | – | – | – | – | – | – | –
CCOC(=O)c1cccc(NC(=O)c2cc(C3(C)CC3)nn2CC)c1 [Compound 295] | – | 100 | 100 | 100 | 50 | 50 | 50 | 65 | 40 | 40 | Plant response rating, Chickweed (chickweed; [5]): 85
CCn1nc(C(C)(C)C)cc1C(=O)Nc1cccc(C(=O)OCCF)c1 [Compound 82, 2-fluoroethyl 3-[[[3-(1,1-dimethylethyl)-1-ethyl-1H-pyrazol-5-yl]-carbonyl]amino]benzoate] | 100 | 100 | 95 | 70 | – | – | – | – | – | – | –
CCn1nc(C(C)(C)C)cc1C(=O)Nc1cccc(OS(=O)(=O)CC)c1 [Compound 408] | – | – | – | – | – | 55 | 45 | – | 45 | 40 | Plant response rating, Oat, Wild (wild oat; [6]): 70; Plant response rating, Ryegrass, Italian (Italian ryegrass; [6]): 70
CCn1nc(C2(C)CC2)cc1C(=O)Nc1cc(C(=O)N2CC=CC2)ccc1F [Compound 301] | – | – | – | – | 75 | 65 | 45 | 45 | 45 | 35 | Oat, Wild plant response rating (wild oat; [7]): 60; Ryegrass, Italian plant response rating (Italian ryegrass; [7]): 65
CCNC(=O)c1cccc(NC(=O)c2cc(C(C)(C)C)nn2CC(F)(F)F)c1 [Compound 31] | – | 100 | – | 90 | – | – | – | – | – | – | Plant response rating, Chickweed (chickweed; [1]): 90
C#CCNC(=O)c1cccc(NC(=O)c2cc(C(C)(C)C)nn2CC)n1 [Compound 147] | 100 | 90 | 30 | 5 | – | – | – | – | – | – | –
CCc1nc(C(C)(C)C)sc1C(=O)Nc1cccc(C(=O)NCC2CC2)c1 [Compound 212] | 100 | 80 | 80 | 60 | – | – | – | – | – | – | –
CCNC(=O)c1cccc(NC(=O)c2cc(C(C)(C)C)nn2CCF)c1 [Compound 35] | – | – | – | 80 | – | – | – | – | – | – | Plant response rating, Chickweed (chickweed; [1]): 90; Plant response rating, Chickweed (chickweed; postemergence, 16 g ai/ha, scale 0 to 100): 70; Plant response rating, Chickweed (chickweed; [5]): 70
CCn1nc(C(C)(C)C)cc1C(=O)Nc1cccc(C(=O)NC2CC2)c1 [Compound 44] | – | 90 | – | 90 | – | – | – | – | – | – | Plant response rating, Chickweed (chickweed; [1]): 90
CCn1nc(C(C)(C)C)cc1C(=O)Nc1cc(OC(F)(F)F)ccc1F [Compound 338] | – | – | – | – | 50 | 45 | 40 | 50 | 30 | 25 | Plant response rating, Oat, Wild (wild oat; [6]): 60; Plant response rating, Ryegrass, Italian (Italian ryegrass; [6]): 60
CCOC(=O)c1cccc(NC(=O)c2cc(C(C)(C)C)nn2CC)c1 [Compound 80, ethyl 3-[[[3-(1,1-dimethylethyl)-1-ethyl-1H-pyrazol-5-yl]carbonyl]-amino]benzoate] | – | 100 | 100 | 100 | – | – | – | – | – | – | Plant response rating, Chickweed (chickweed; [5]): 90
CCCCOc1cccc(NC(=O)c2cc(C(C)(C)C)nn2CC)c1 [Compound 137] | – | – | – | – | 40 | 40 | 20 | 40 | 40 | 20 | Oat, Wild plant response rating (wild oat; [7]): 50; Ryegrass, Italian plant response rating (Italian ryegrass; [7]): 60
CCn1nc(C(C)(C)C)cc1C(=O)Nc1cccc(C(=O)NCC2CC2)c1 [Compound 62] | – | – | – | – | 50 | 40 | 30 | 40 | 20 | 20 | –
